Data on 18 compounds can be found in US9422309B2, “3-O-heteroaryl-ingenol” (LEO LABORATORIES LIMITED, priority 2012, dated 2016).

A word on the EC50: it is the concentration needed to bring the measured effect to its halfway point.

Common to all, as to format: cell-based
For assay [1], the system named is HeLa cells. Description: Necrosis assay. Conditions: Homo sapiens, 0.5 h, 30 min at 37° C., PrestoBlue, normalised to 4 10^−4 M PEP0005/ingenol mebutate, read-out: HeLa necrosis EC50 range. How it is done: HeLa cells (ATCC CCL-002) were grown in minimal essential medium (Invitrogen catalog no. 42360) containing 10% fetal bovine serum, 100 IU/ml penicillin and 100 μg/ml streptomycin. 4,000-6,000 cells were seeded into 96-well black ViewPlates-plates, clear bottom, (Perkin Elmer) in 100 μl medium and incubated overnight. Compounds were dissolved and pre-diluted in DMSO in 96-well polypropylene plates (Greiner) in a concentration range of 15 μM to 600 μM. At the time of the experiment cell plates were placed on heating blocks at 37° C., medium was removed and 40 μl fresh, pre-warmed medium was added per well. Cells were incubated for 15 min before addition of compounds. In parallel, 3 μl of compounds were diluted with 197 μl growth medium on a Tecan freedom-EVO pipetting station using 250 μl/s pipetting speed, in order to ensure effective mixing of the highly concentrated compound solutions with the aqueous phase.
These pre-dilution plates were then equilibrated on heating blocks at 37° C. for 10 min. 80 μl pre-diluted compound were transferred manually to the corresponding wells containing HeLa cells yielding compound concentrations of 10 μM to 400 μM. Control conditions were 1% DMSO in growth medium (100% viability) and 400 μM ingenol mebutate in growth medium (0% viability). Plates were incubated on the heating blocks at 37° C. for 30 min. At the end of the incubation 10 μl PrestoBlue reagent (Invitrogen) were added to each well, plates were sealed with black seal, followed by incubation at 37° C. for 10 min with gentle shaking (150 rpm). Subsequently, plates were placed at room temperature for 20-30 min. Plates were read immediately after on an Envision Fluorescence reader (Perkin Elmer) with excitation at 535 nm and emission at 630 nm. Test compound titration curves were fitted to a four-parameter sigmoidal curve after normalizing the effect of the test compound to the effect of the positive control (4 10^−4 M PEP0005/ingenol mebutate). Abs EC50 denotes the concentration of test compound producing 50% effect.

Assay [2] concerns Primary human epidermal keratinocytes, HeKa. The assay is described as follows: HeKa cytokine release (IL-8). Conditions: 6 h at 37° C., normalised to 1.5×10^−7 M PEP0005, read-out: HeKa cytokine release (IL-8) Rel EC50 range. The procedure:
Primary human epidermal keratinocytes, HeKa, are seeded (10.000 cells/well) in 96-well plates the day before the assay. Test compounds are diluted in DMSO (dimethyl sulfoxide) and further diluted in assay medium and pipetted into wells of 96 well-plates containing HeKa cells. The plates are incubated for 6 h at 37° C. in humidified air with 5% CO2. Plates are centrifuged briefly to spin down cells at 4° C., the supernatant is removed and analysed by Meso Scale Discovery (MSD) 4-spot cytokine assay (Pro-inflammatory II Ultra Sensitive kit, MSD, MD, USA). The MSD assay employs a sandwich immunoassay format where capture antibodies are coated in a patterned array on the bottom of the wells of a 4-Spot-Multi-MSD plate. Standard samples are incubated in the MULTI-SPOT plates as well, and the cytokine (IL-8) binds to its corresponding capture antibody spot. The cytokine level is quantitated on a SECTOR™ Imager using a cytokine-specific Detection Antibody labelled with MSD SULFO-TAG™ reagent.
Test compound titration curves are fitted to a four-parameter sigmoidal curve after normalizing the effect of the test compound to the effect of the positive control (1.5×10^−7 M PEP0005). Rel EC50 denotes the concentration of test compound producing an effect that is midway between the fitted top and bottom.

In assay [3] the test system is PMN's (polymorphonuclear leukocytes). Description: Neutrophil oxidative burst. Conditions: Leukocyte, 40 min; 40 min incubation at rt; normalised to 5×10^−7 M PEP0005; read-out: Neutrophil oxidative burst Rel EC50 range. The procedure: PMN's (polymorphonuclear leukocytes) are isolated and purified from fresh buffy coats by sequential sedimentation, density centrifugation and lysis of contaminating erythrocytes. In brief, buffy coats are incubated with 2% methocel for 30-45 min to differentially sediment red blood cells. The leukocyte-rich supernatant is transferred to lymphoprep tubes to remove mononuclear cells by density centrifugation (400×g, 30 min). The pellet is resuspended and any remaining erythrocytes lysed using 0.2% NaCl for 30 sec before restoring isotonicity by the addition of 1.2% NaCl. This step is repeated until the cell pellet appears relatively free of red blood cells. Cells are resuspended in DPBS (Dulbecco's Phosphate Buffered Saline) (w.o. Ca^2+, Mg^2+) and the concentration adjusted to 1.4×10^6 cells/ml in HBSS (Hanks Balanced Salt solution) (w Ca^2+, Mg^2+) containing 0.1% BSA (Bovine Serum Albumin) and 5 mM glucose just prior to assay initiation. Titrated reference and test compounds are pre-mixed with HE (Hydroethidine) (10 μM final assay concentration) before addition to 96-well plates containing 2.5×10^5 cells. Following 40 min incubation at rt, changes in the respiratory burst is estimated by measuring fluorescence at 579 nm (excitation: 485 nm) using an Envision plate reader.
Test compound titration curves are fitted to a four-parameter sigmoidal curve after normalizing the effect of the test compound to the effect of the positive control (5×10^−7 M PEP0005). Rel EC50 denotes the concentration of test compound producing an effect that is midway between the fitted top and bottom. Abs EC50 is the concentration of test compound that provokes a response corresponding to 50% of the maximal effect associated with the positive control (5×10^−7 M PEP0005).

SMILES strings stand for the structures. Bounds are passed on as bounds.

`CC1=C[C@]23C(=O)[C@@H](C=C(CO)[C@@H](O)[C@]2(O)[C@H]1Oc1noc(C(C)C)n1)[C@H]1[C@@H](C[C@H]3C)C1(C)C` [Compound 133, 3-O-(5-Isopropyl-1,2,4-oxadiazol-3-yl)-ingenol]: the EC50 in assay [1] is not below 350000 nM; in assay [2], 20 to 100 nM; in assay [3], 20 to 100 nM.

For the compound `CC1=C[C@]23C(=O)[C@@H](C=C(CO)[C@@H](O)[C@]2(O)[C@H]1Oc1nccn1C)[C@H]1[C@@H](C[C@H]3C)C1(C)C` [Compound 108, 3-O-(1-Methylimidazol-2-yl)-ingenol], the concentration giving a half-maximal response (EC50) is not below 350000 nM in assay [1], not below 100 nM in assay [2] and not below 100 nM in assay [3].

Regarding `CC1=C[C@]23C(=O)[C@@H](C=C(CO)[C@@H](O)[C@]2(O)[C@H]1Oc1noc2cccc(F)c12)[C@H]1[C@@H](C[C@H]3C)C1(C)C` [Compound 128, 3-O-(4-Fluoro-1,2-benzoxazol-3-yl)-ingenol], the figures for the EC50 in assay [1], in assay [2] and in assay [3] were 150000 to 350000 nM, less than 20 nM and less than 20 nM, respectively.

For `CC1=C[C@]23C(=O)[C@@H](C=C(CO)[C@@H](O)[C@]2(O)[C@H]1Oc1ncc(C(F)(F)F)cn1)[C@H]1[C@@H](C[C@H]3C)C1(C)C` [Compound 110, 3-O-(5-(Trifluoromethyl)-pyrimidin-2-yl)-ingenol], the results for the concentration giving a half-maximal response (EC50) in assay [1], in assay [2] and in assay [3] were not below 350000 nM, not below 100 nM and not below 100 nM, respectively.

Regarding `CC1=C[C@]23C(=O)[C@@H](C=C(CO)[C@@H](O)[C@]2(O)[C@H]1Oc1noc2cc(Cl)ccc12)[C@H]1[C@@H](C[C@H]3C)C1(C)C` [Compound 125, 3-O-(6-Chloro-1,2-benzoxazol-3-yl)-ingenol], the values for the EC50 in assay [1], in assay [2] and in assay [3] were less than 150000 nM, less than 20 nM and less than 20 nM, respectively.

As for `COc1cccnc1O[C@H]1C(C)=C[C@]23C(=O)[C@@H](C=C(CO)[C@@H](O)[C@]12O)[C@H]1[C@@H](C[C@H]3C)C1(C)C` [Compound 129, 3-O-(3-Methoxy-pyridin-2-yl)-ingenol], the values for the concentration for a half-maximal effect (EC50) in assay [1], in assay [2] and in assay [3] were not below 350000 nM, not below 100 nM and not below 100 nM, respectively.

As to `CC1=C[C@]23C(=O)[C@@H](C=C(CO)[C@@H](O)[C@]2(O)[C@H]1Oc1ccc(C(F)(F)F)cn1)[C@H]1[C@@H](C[C@H]3C)C1(C)C` [Compound 103, 3-O-(5-(Trifluoromethyl)-2-pyridyl)-ingenol], the concentration for a half-maximal effect (EC50) in assay [1] fell in the range of 150000 to 350000 nM; in assay [2], 20 to 100 nM.

As for `CC1=C[C@]23C(=O)[C@@H](C=C(CO)[C@@H](O)[C@]2(O)[C@H]1Oc1nccn1CC(F)F)[C@H]1[C@@H](C[C@H]3C)C1(C)C` [Compound 121, 3-O-(1-(2,2-Difluoroethyl)imidazol-2-yl)-ingenol], the figures for the concentration giving a half-maximal response (EC50) in assay [2] and in assay [3] were not below 100 nM and 20 to 100 nM, respectively.

Consider `C=CCn1ccnc1O[C@H]1C(C)=C[C@]23C(=O)[C@@H](C=C(CO)[C@@H](O)[C@]12O)[C@H]1[C@@H](C[C@H]3C)C1(C)C` [Compound 109, 3-O-(1-Allylimidazol-2-yl)-ingenol], for which the figures for the half-maximal effective concentration (EC50) in assay [1] and in assay [3] were not below 350000 nM and 20 to 100 nM, respectively.

Regarding `CC1=C[C@]23C(=O)[C@@H](C=C(CO)[C@@H](O)[C@]2(O)[C@H]1Oc1ncccc1F)[C@H]1[C@@H](C[C@H]3C)C1(C)C` [Compound 112, 3-O-(3-Fluoro-2-pyridyl)-ingenol], the EC50 in assay [1] was not below 350000 nM; in assay [2], not below 100 nM; in assay [3], 20 to 100 nM.

Turning to `CC1=C[C@]23C(=O)[C@@H](C=C(CO)[C@@H](O)[C@]2(O)[C@H]1Oc1noc2ccc(Cl)cc12)[C@H]1[C@@H](C[C@H]3C)C1(C)C` [Compound 131, 3-O-(5-Chloro-1,2-benzoxazol-3-yl)-ingenol], the half-maximal effective concentration (EC50) in assay [1] was less than 150000 nM; in assay [2], less than 20 nM; in assay [3] it was less than 20 nM.

In the case of `CC1=C[C@]23C(=O)[C@@H](C=C(CO)[C@@H](O)[C@]2(O)[C@H]1Oc1nn(C)c2ccccc12)[C@H]1[C@@H](C[C@H]3C)C1(C)C` [Compound 107, 3-O-(1-Methylindazol-3-yl)-ingenol], the EC50 in assay [1] is 150000 to 350000 nM; in assay [2] it was not below 100 nM; in assay [3], not below 100 nM.

Regarding `CC1=C[C@]23C(=O)[C@@H](C=C(CO)[C@@H](O)[C@]2(O)[C@H]1Oc1nccc2ccccc12)[C@H]1[C@@H](C[C@H]3C)C1(C)C` [Compound 119, 3-O-(1-Isoquinolyl)-ingenol], the EC50 in assay [1] was 150000 to 350000 nM; in assay [2] it was less than 20 nM; in assay [3], 20 to 100 nM.

As to `CC1=C[C@]23C(=O)[C@@H](C=C(CO)[C@@H](O)[C@]2(O)[C@H]1Oc1ncccc1C(F)(F)F)[C@H]1[C@@H](C[C@H]3C)C1(C)C` [Compound 118, 3-O-(3-(Trifluoromethyl)-2-pyridyl)-ingenol], the EC50 in assay [1] is less than 150000 nM; in assay [2] it was 20 to 100 nM; in assay [3], less than 20 nM.

Consider `CC1=C[C@]23C(=O)[C@@H](C=C(CO)[C@@H](O)[C@]2(O)[C@H]1Oc1noc2ccccc12)[C@H]1[C@@H](C[C@H]3C)C1(C)C` [Compound 102, 3-O-(1,2-Benzoxazol-3-yl)-ingenol], for which the EC50 was 150000 to 350000 nM in assay [1], less than 20 nM in assay [2] and less than 20 nM in assay [3].

With `CC1=C[C@]23C(=O)[C@@H](C=C(CO)[C@@H](O)[C@]2(O)[C@H]1Oc1ncccc1C)[C@H]1[C@@H](C[C@H]3C)C1(C)C` [Compound 124, 3-O-(3-Methyl-2-pyridyl)-ingenol], the EC50 in assay [1] is not below 350000 nM; in assay [2], not below 100 nM; in assay [3] it was not below 100 nM.

`CC1=C[C@]23C(=O)[C@@H](C=C(CO)[C@@H](O)[C@]2(O)[C@H]1Oc1nccn1CCF)[C@H]1[C@@H](C[C@H]3C)C1(C)C` [Compound 122, 3-O-(1-(2-Fluoroethyl)imidazol-2-yl)-ingenol]: the 50% effective concentration (EC50) in assay [2] and in assay [3] was not below 100 nM throughout.

For `CC1=C[C@]23C(=O)[C@@H](C=C(CO)[C@@H](O)[C@]2(O)[C@H]1Oc1nccc2occc12)[C@H]1[C@@H](C[C@H]3C)C1(C)C` [Compound 126, 3-O-(Furo[3,2-c]pyridine-4-yl)-ingenol], the EC50 fell in the range of 150000 to 350000 nM in assay [1] and 20 to 100 nM in assay [3].
